Assays:
Assay in all cases: NADPH formation at […] nm, plate reader, Michaelis-Menten nonlinear fit
Assay type in all cases: biochemical
Conditions in all cases: 200 µM NADP+, 100 mM beta-mercaptoethanol, Tris/HCl pH 7.6, 30 °C; WT values said to accord with the authors' earlier paper [22]
[1] = biological target: T1, 10-formyl-THFDH (Amel_10-formyl-THFDH) (Apis mellifera, UniProt A0A7M7GVR6)
T1 construct: gene LOC551401; full-length ORF, N-terminal 6xHis tag (MHHHHHHAQLKVA...) not reported cleaved, baculovirus expression in Hi5 insect cells, Ni-NTA purified

[2] = biological target: T1, 10-formyl-THFDH (Amel_10-formyl-THFDH); remark: listed apart in the source
[3] = biological target: T1, 10-formyl-THFDH (Amel_10-formyl-THFDH); remark: listed apart in the source
[4] = biological target: T1, 10-formyl-THFDH (Amel_10-formyl-THFDH); remark: listed apart in the source

T1 sequence (A0A7M7GVR6 entry or part of it): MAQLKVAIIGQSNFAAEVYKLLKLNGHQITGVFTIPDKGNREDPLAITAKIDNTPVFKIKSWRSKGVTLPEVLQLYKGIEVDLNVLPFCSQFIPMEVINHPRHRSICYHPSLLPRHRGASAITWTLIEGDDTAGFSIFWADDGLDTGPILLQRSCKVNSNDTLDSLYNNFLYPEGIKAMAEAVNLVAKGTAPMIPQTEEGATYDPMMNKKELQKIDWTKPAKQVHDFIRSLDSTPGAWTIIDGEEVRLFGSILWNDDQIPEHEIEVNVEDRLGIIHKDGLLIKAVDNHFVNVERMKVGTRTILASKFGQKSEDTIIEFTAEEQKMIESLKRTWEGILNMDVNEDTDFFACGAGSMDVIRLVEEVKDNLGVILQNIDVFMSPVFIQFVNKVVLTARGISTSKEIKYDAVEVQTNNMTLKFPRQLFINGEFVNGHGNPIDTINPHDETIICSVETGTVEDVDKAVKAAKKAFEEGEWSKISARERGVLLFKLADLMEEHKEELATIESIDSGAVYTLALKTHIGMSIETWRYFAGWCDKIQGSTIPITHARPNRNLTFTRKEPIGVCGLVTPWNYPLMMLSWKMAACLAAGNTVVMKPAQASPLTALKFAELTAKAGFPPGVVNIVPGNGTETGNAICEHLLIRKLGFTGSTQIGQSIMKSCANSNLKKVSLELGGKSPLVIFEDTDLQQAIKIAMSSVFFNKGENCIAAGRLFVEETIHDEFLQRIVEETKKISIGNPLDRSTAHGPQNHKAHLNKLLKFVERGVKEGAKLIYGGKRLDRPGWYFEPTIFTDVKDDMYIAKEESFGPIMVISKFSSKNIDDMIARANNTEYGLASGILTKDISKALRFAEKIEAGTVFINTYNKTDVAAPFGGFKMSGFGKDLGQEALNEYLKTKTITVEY

Km [3]: 9.6 µM
SMILES: Nc1nc2c(c(=O)[nH]1)NC(CN(C=O)c1ccc(C(=O)N[C@@H](CCC(=O)O)C(=O)O)cc1)CN2 (stereo partly shown) [10-formyl-THF]
NADPH formation at 340 nm, plate reader, Michaelis-Menten nonlinear fit [1]: The mutations lost their activity almost entirely | NADPH formation at 340 nm, plate reader, Michaelis-Menten nonlinear fit [2]: The mutations lost their activity almost entirely | NADPH formation at 340 nm, plate reader, Michaelis-Menten nonlinear fit [4]: The mutations lost their activity almost entirely

From paper PMC9820478, “The Active Site of the Enzyme 10-Formyl-THFDH in the Honey Bee Apis mellifera—A Key Player in Formic Acid Detoxification” (International Journal of Molecular Sciences, 2022)
